Several values for one entry are separate records, joined by “and”; a condition that tells them apart may be missing. Equal values may be shown once.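 Following 48 hours of exposure in 96-well plates, responses at five concentrations were used to interpolate endpoints linearly. The concentration for 50% growth inhibition is given as GI50.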 Activity calls are given as the source filed them. Cut-off read from the data, not from the text of the source: active = GI50 up to about 1.1 µM and inactive = higher.
What was measured:
Assay in all cases: DTP human tumour cell line panel, 48 h
MOLT-4 = tested on: MOLT-4
PC-3 = tested on: PC-3
IGROV-1 = tested on: IGROV-1
OVCAR-8 = tested on: OVCAR-8
SK-OV-3 = tested on: SK-OV-3
NCI-H23 = tested on: NCI-H23
U-251 = tested on: U-251
SR = tested on: SR
ACHN = tested on: ACHN
M14 = tested on: M14
OVCAR-3 = tested on: OVCAR-3
SNB-19 = tested on: SNB-19
UACC-62 = tested on: UACC-62
HCC 2998 = tested on: HCC 2998
SK-MEL-28 = tested on: SK-MEL-28
Malme-3M = tested on: Malme-3M
UO-31 = tested on: UO-31
A498 = tested on: A498
COLO 205 = tested on: COLO 205
SK-MEL-2 = tested on: SK-MEL-2

SMILES	GI50 (MOLT-4)	GI50 (PC-3)	GI50 (IGROV-1)	GI50 (OVCAR-8)	GI50 (SK-OV-3)	GI50 (NCI-H23)	GI50 (U-251)	GI50 (SR)	GI50 (ACHN)	GI50 (M14)	GI50 (OVCAR-3)	GI50 (SNB-19)	GI50 (UACC-62)	GI50 (HCC 2998)	GI50 (SK-MEL-28)	GI50 (Malme-3M)	GI50 (UO-31)	GI50 (A498)	GI50 (COLO 205)	GI50 (SK-MEL-2)
CC(=O)OCc1cc(OC(C)=O)c2cc3c(OC(C)=O)cccc3c(OC(C)=O)c2c1	15.2 µM (inactive)	16.5 µM (inactive)	14.5 µM (inactive)	13.3 µM (inactive)	18.5 µM (inactive)	17.1 µM (inactive)	15.6 µM (inactive)	19.5 µM (inactive)	11.6 µM (inactive)	12.5 µM (inactive)	13.7 µM (inactive)	18.3 µM (inactive)	13.3 µM (inactive)	14.5 µM (inactive)	23 µM (inactive)	1.64 µM (inactive)	17 µM (inactive)	11.2 µM (inactive)	6.67 µM (inactive)	–
COc1ccccc1C1SCC(=O)N1c1ccc(-n2c(-c3ccccc3)nc3ccccc3c2=O)cc1 (stereo not given)	28.8 µM (inactive)	80.4 µM (inactive)	46.6 µM (inactive)	60.4 µM (inactive)	> 100 µM (inactive)	> 100 µM (inactive)	73.1 µM (inactive)	81.7 µM (inactive)	71.8 µM (inactive)	–	> 100 µM (inactive)	> 100 µM (inactive)	29.2 µM (inactive)	70.6 µM (inactive)	> 100 µM (inactive)	69.2 µM (inactive)	9.1 µM (inactive)	36 µM (inactive)	> 100 µM (inactive)	> 100 µM (inactive)
CCOC(=O)C1=C(C)C2C=C(c3cccs3)CC(c3ccc(Cl)cc3)=C2OC1=O (stereo not given)	6.07 µM (inactive)	14.1 µM (inactive)	26.3 µM (inactive)	31.8 µM (inactive)	> 100 µM (inactive)	71.1 µM (inactive)	33.3 µM (inactive)	15.5 µM (inactive)	32.7 µM (inactive)	58.3 µM (inactive)	24.7 µM (inactive)	45.2 µM (inactive)	45.8 µM (inactive)	22.5 µM (inactive)	94.4 µM (inactive)	–	13.3 µM (inactive)	83.2 µM (inactive)	40.9 µM (inactive)	> 100 µM (inactive)
CCCCOC(=O)NC(Nc1ccc(S(=O)(=O)Nc2ccc(OC)nn2)cc1)(C(F)(F)F)C(F)(F)F	> 100 µM (inactive)	> 100 µM (inactive)	> 100 µM (inactive)	> 100 µM (inactive)	> 100 µM (inactive)	> 100 µM (inactive)	> 100 µM (inactive)	> 100 µM (inactive)	> 100 µM (inactive)	> 100 µM (inactive)	> 100 µM (inactive)	> 100 µM (inactive)	> 100 µM (inactive)	> 100 µM (inactive)	> 100 µM (inactive)	> 100 µM (inactive)	> 100 µM (inactive)	> 100 µM (inactive)	> 100 µM (inactive)	–
COc1ccc(/N=N/C(=O)NC(Cc2ccccc2)C(=O)O)cc1 (stereo not given)	> 100 µM (inactive)	95.7 µM (inactive)	> 100 µM (inactive)	> 100 µM (inactive)	–	> 100 µM (inactive)	> 100 µM (inactive)	> 100 µM (inactive)	> 100 µM (inactive)	> 100 µM (inactive)	> 100 µM (inactive)	> 100 µM (inactive)	87.9 µM (inactive)	> 100 µM (inactive)	> 100 µM (inactive)	> 100 µM (inactive)	> 100 µM (inactive)	> 100 µM (inactive)	> 100 µM (inactive)	> 100 µM (inactive)
COc1ccc(C(O)c2ccc3c(c2)OCO3)cc1 (stereo not given)	> 100 µM (inactive)	> 100 µM (inactive)	> 100 µM (inactive)	> 100 µM (inactive)	> 100 µM (inactive)	> 100 µM (inactive)	> 100 µM (inactive)	25.6 µM (inactive)	> 100 µM (inactive)	> 100 µM (inactive)	> 100 µM (inactive)	> 100 µM (inactive)	> 100 µM (inactive)	> 100 µM (inactive)	> 100 µM (inactive)	> 100 µM (inactive)	74.1 µM (inactive)	> 100 µM (inactive)	> 100 µM (inactive)	–
O=C(COc1ccc(OCC(=O)N/N=C/c2ccc(-c3ccc(Cl)cc3Cl)o2)c(Cl)c1)N/N=C/c1ccc(-c2ccc(Cl)cc2Cl)o1	0.0298 µM (active)	33.7 µM (inactive)	> 100 µM (inactive)	55.3 µM (inactive)	–	> 100 µM (inactive)	46.7 µM (inactive)	0.342 µM (active)	70.1 µM (inactive)	> 100 µM (inactive)	49.5 µM (inactive)	> 100 µM (inactive)	27.9 µM (inactive)	29.8 µM (inactive)	> 100 µM (inactive)	82.8 µM (inactive)	> 100 µM (inactive)	49.3 µM (inactive)	0.942 µM (active)	17.1 µM (inactive)
C=CCN1CCC(c2cc(C(=O)OCC)[nH]c2-c2cc(C)no2)C1=O (stereo not given)	79.6 µM (inactive)	> 100 µM (inactive)	> 100 µM (inactive)	> 100 µM (inactive)	> 100 µM (inactive)	> 100 µM (inactive)	> 100 µM (inactive)	43.8 µM (inactive)	–	> 100 µM (inactive)	> 100 µM (inactive)	> 100 µM (inactive)	> 100 µM (inactive)	> 100 µM (inactive)	> 100 µM (inactive)	> 100 µM (inactive)	> 100 µM (inactive)	> 100 µM (inactive)	> 100 µM (inactive)	> 100 µM (inactive)
CC1(C)CC2=NC(SSC3=C(C#N)C(c4ccc(Br)cc4)C4=C(O)CC(C)(C)CC4=N3)=C(C#N)C(c3ccc(Br)cc3)C2=C(O)C1 (stereo not given)	59 µM (inactive)	> 100 µM (inactive)	> 100 µM (inactive)	> 100 µM (inactive)	> 100 µM (inactive)	> 100 µM (inactive)	> 100 µM (inactive)	48.3 µM (inactive)	> 100 µM (inactive)	> 100 µM (inactive)	> 100 µM (inactive)	> 100 µM (inactive)	> 100 µM (inactive)	–	> 100 µM (inactive)	> 100 µM (inactive)	> 100 µM (inactive)	> 100 µM (inactive)	> 100 µM (inactive)	> 100 µM (inactive)
CC(C)=C1C(=O)C[C@]2(C)C/C=C(\C)CC/C=C(\C)CC[C@@H]12	8.61 µM (inactive)	11.8 µM (inactive)	9.4 µM (inactive)	8.51 µM (inactive)	18.9 µM (inactive)	10.2 µM (inactive)	7.62 µM (inactive)	9.86 µM (inactive)	9.02 µM (inactive)	7.87 µM (inactive)	8.53 µM (inactive)	> 50 µM (inactive)	7.74 µM (inactive)	7.53 µM (inactive)	8.22 µM (inactive)	–	7.73 µM (inactive)	20.8 µM (inactive)	8.51 µM (inactive)	7.85 µM (inactive)
O=C(/C=C/c1cccs1)c1ccc(Cl)s1	23.8 µM (inactive)	40.6 µM (inactive)	> 10 µM (inactive)	37.9 µM (inactive)	67 µM (inactive)	23.1 µM (inactive)	40.8 µM (inactive)	25.2 µM (inactive)	> 100 µM (inactive)	38.8 µM (inactive)	–	15.7 µM (inactive)	45 µM (inactive)	18.7 µM (inactive)	29.2 µM (inactive)	> 100 µM (inactive)	19.9 µM (inactive)	55.7 µM (inactive)	> 10 µM (inactive)	> 100 µM (inactive)
CCOC(=O)CSc1nc2ccccc2c(=O)n1N	> 100 µM (inactive)	> 100 µM (inactive)	> 100 µM (inactive)	32.8 µM (inactive)	–	> 100 µM (inactive)	> 100 µM (inactive)	> 100 µM (inactive)	> 100 µM (inactive)	> 100 µM (inactive)	> 100 µM (inactive)	> 100 µM (inactive)	> 100 µM (inactive)	37.6 µM (inactive)	> 100 µM (inactive)	> 100 µM (inactive)	> 100 µM (inactive)	> 100 µM (inactive)	> 100 µM (inactive)	> 100 µM (inactive)
CC(c1ccccc1)n1c2ccccc2c2c(N)ncnc21 (stereo not given)	23 µM (inactive)	17.7 µM (inactive)	18.9 µM (inactive)	17.1 µM (inactive)	14.2 µM (inactive)	20.4 µM (inactive)	16.7 µM (inactive)	24.7 µM (inactive)	11.7 µM (inactive)	18.8 µM (inactive)	16.2 µM (inactive)	16.5 µM (inactive)	–	18.2 µM (inactive)	17.9 µM (inactive)	21.2 µM (inactive)	9.16 µM (inactive)	15.7 µM (inactive)	–	23.7 µM (inactive)
COC1C(OC(C)=O)CC(=O)OC(C)C/C=C/C=C\C(O)C(C)CC(CC=O)C1OC1OC(C)C(OC2CC(C)(O)C(OC(=O)CC(C)C)C(C)O2)C(N(C)C)C1O (stereo not given)	–	79.6 µM (inactive)	32.4 µM (inactive) and 25.6 µM (inactive)	> 100 µM (inactive)	> 100 µM (inactive)	> 100 µM (inactive)	> 100 µM (inactive)	24.6 µM (inactive) and 18.5 µM (inactive)	> 100 µM (inactive)	89.3 µM (inactive) and 57.5 µM (inactive)	> 100 µM (inactive) and 96.8 µM (inactive)	> 100 µM (inactive) and 77.6 µM (inactive)	> 100 µM (inactive)	> 100 µM (inactive)	> 100 µM (inactive)	> 100 µM (inactive)	64.9 µM (inactive) and 43.8 µM (inactive)	> 100 µM (inactive) and 70.3 µM (inactive)	> 100 µM (inactive) and 69.7 µM (inactive)	> 100 µM (inactive)
